Results from PMC9977398, “Next-generation membrane-active glycopeptide antibiotics that also inhibit bacterial cell division” (Chemical Science, 2023).

What was measured:
B. subtilis = assay: Membrane permeabilization assay, propidium iodide uptake; type: cell-based; settings: exponentially growing B. subtilis, 10 μM, PI uptake
Procedure: The kinetics of permeabilization of membranes of MRSA and B. subtilis by the compounds was measured by the uptake of propidium iodide (PI). […] When the membrane integrity is compromised, it enters the cell and fluoresces upon binding to the DNA. Both VanQbiph (4) and VanQAmC10 (8) permeabilized the membrane in a concentration-dependent manner (Fig. S2 ^†). […] They caused gradual permeabilization against the stationary phase cells of MRSA as well (Fig. 2F). The extent of permeabilization was higher for VanQAmC10 (8) than VanQbiph (4) against both the log-phase and stationary-phase bacteria similar to that observed during depolarisation.
50 μL of serially diluted compound was added into 96 well microtiter plates. Freshly drawn, heparanized human blood was centrifuged down to obtain the erythrocytes and re-suspended to 5 vol % in PBS (pH 7.4). […] 100 μL of the supernatant from each well were transferred into fresh microtiter plates, and A540 was measured.
% haemolysis = (A - A0)/(Atotal -A0) × 100, where A is the absorbance of the test well, A 0 the absorbance of the negative controls (without compound), and A total the absorbance of 100 % hemolysis wells (with Triton X -100), all at 540 nm. […]
2 h post incubation with dye, the absorbance was measured at 570 nm using 600 nm as […]
The bactericidal activity of the compounds was evaluated with the time kill kinetics assay. […]

[1] = tested on: VRSA 1 (vancomycin-resistant S. aureus); design: method as in PMID 32195571; settings: previously reported; cited from earlier work
human erythrocytes = tested on: human erythrocytes; design: method as in PMID 32195571; settings: previously reported; cited from earlier work
VRSA = tested on: VRSA; design: method as in PMID 32195571; settings: strain not specified, Fig. 1 legend; MIC against VRSA previously reported; cited from earlier work
A. baumannii = tested on: A. baumannii; design: method as in PMID 32195571; settings: cited from earlier work
[2] = mice, intravenous injection; cited from earlier work

## CCCCCCCCCCNC(=O)C[N+](C)(C)CCCNC(=O)C1NC(=O)C2NC(=O)C(NC(=O)C3NC(=O)C(CC(N)=O)NC(=O)C(NC(=O)C(CC(C)C)NC)C(O)c4ccc(c(Cl)c4)Oc4cc3cc(c4OC3OC(CO)C(O)C(O)C3OC3CC(C)(N)C(O)C(C)O3)Oc3ccc(cc3Cl)C2O)c2ccc(O)c(c2)-c2c(O)cc(O)cc21 (stereo not drawn) [VanQAmC10 (8)]
B. subtilis
  time to membrane permeabilization: ≤ 4 min
[1]
  Minimum inhibitory concentration, VRSA 1: 3.1 µM
Human erythrocytes
  HC50: >500 µM
VRSA
  MIC against VRSA: 1.6 µM
A. baumannii
  resistance induction in A. baumannii: does not induce resistance
[2]
  LD50: 70 mg/kg
